These results are taken from ChEMBL document CHEMBL5465560, “Selectivity Literature for EUbOPEN Chemogenomic Library” (2024).

The target of assay [1] is Ribosomal protein S6 kinase beta-1 (Homo sapiens, UniProt P23443). In words: Selectivity interaction (ActivX KiNativ screen (kinase selectivity in THP-1 cell lysates)) EUB0000639a RPS6KB1. It counts as subcellular. To be noted: lysate, at 0.01 µM.
The target in assay [2] is Casein kinase II subunit alpha (Homo sapiens, UniProt P68400). In words: Selectivity interaction (Kinase panel (DSF assay)) EUB0001559a CSNK2A1. A general note: DSF heats the sample and reads unfolding from a dye or from intrinsic fluorescence.
The target of assay [3] is Ribosomal protein S6 kinase alpha-2 (Homo sapiens) (UniProt Q15349). In words: Selectivity interaction (KinomeScan (DiscoverX)) EUB0000311b RPS6KA2. As to conditions: at 1 µM.
The target of assay [4] is Platelet-derived growth factor receptor alpha (Homo sapiens, UniProt P16234). In words: (§1) Selectivity interaction (ProQinase) EUB0000171b PDGFRA.
Sequence of Platelet-derived growth factor receptor alpha (P16234 whole entry): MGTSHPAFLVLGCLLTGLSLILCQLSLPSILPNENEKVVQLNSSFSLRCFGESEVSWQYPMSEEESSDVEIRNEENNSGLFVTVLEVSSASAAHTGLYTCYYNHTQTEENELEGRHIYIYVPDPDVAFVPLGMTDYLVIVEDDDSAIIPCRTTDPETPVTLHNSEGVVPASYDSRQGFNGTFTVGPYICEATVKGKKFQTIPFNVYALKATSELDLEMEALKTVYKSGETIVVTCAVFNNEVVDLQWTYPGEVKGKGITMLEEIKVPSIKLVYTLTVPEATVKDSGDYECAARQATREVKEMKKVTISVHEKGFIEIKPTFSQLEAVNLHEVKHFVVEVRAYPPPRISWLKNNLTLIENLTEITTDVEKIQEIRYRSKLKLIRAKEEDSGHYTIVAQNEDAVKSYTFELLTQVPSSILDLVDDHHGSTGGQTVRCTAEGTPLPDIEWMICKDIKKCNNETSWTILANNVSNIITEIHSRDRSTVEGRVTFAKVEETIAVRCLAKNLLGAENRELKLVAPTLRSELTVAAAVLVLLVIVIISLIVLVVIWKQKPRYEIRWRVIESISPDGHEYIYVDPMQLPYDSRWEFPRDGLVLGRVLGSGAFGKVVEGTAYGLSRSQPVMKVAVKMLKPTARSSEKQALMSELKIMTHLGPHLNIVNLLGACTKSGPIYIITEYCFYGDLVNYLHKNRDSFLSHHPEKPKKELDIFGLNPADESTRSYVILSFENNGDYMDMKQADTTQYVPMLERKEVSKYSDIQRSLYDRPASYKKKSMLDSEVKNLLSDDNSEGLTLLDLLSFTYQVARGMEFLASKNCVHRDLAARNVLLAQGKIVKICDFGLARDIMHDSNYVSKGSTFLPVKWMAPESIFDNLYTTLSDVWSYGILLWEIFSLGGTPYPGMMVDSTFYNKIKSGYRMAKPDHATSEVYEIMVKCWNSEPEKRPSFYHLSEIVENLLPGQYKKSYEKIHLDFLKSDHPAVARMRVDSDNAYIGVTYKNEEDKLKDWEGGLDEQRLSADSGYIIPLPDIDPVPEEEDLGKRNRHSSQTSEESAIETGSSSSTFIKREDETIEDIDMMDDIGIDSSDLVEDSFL
The subject of assay [5] is Platelet-derived growth factor receptor alpha (Homo sapiens), P16234 [D842V]. The description is as §1.
The subject of assay [6] is Platelet-derived growth factor receptor alpha (Homo sapiens), P16234 [T674I]. The description is as §1.
Assay [7] concerns Platelet-derived growth factor receptor alpha (Homo sapiens), P16234 [V561D]. The assay is described as §1.
Sequence of Platelet-derived growth factor receptor alpha (Homo sapiens), P16234 [V561D] (P16234 whole entry V561D): as the sequence (P16234 whole entry) above, with V561D counted along it
Assay [8] concerns the target Tyrosine-protein kinase CSK (Homo sapiens) (UniProt P41240). In words: Selectivity interaction (ProQinase) EUB0000171b CSK.
The target of assay [9] is T1, Phosphatidylinositol 4,5-bisphosphate 3-kinase catalytic subunit delta isoform (Homo sapiens) (UniProt O00329).
T1 sequence (whole entry): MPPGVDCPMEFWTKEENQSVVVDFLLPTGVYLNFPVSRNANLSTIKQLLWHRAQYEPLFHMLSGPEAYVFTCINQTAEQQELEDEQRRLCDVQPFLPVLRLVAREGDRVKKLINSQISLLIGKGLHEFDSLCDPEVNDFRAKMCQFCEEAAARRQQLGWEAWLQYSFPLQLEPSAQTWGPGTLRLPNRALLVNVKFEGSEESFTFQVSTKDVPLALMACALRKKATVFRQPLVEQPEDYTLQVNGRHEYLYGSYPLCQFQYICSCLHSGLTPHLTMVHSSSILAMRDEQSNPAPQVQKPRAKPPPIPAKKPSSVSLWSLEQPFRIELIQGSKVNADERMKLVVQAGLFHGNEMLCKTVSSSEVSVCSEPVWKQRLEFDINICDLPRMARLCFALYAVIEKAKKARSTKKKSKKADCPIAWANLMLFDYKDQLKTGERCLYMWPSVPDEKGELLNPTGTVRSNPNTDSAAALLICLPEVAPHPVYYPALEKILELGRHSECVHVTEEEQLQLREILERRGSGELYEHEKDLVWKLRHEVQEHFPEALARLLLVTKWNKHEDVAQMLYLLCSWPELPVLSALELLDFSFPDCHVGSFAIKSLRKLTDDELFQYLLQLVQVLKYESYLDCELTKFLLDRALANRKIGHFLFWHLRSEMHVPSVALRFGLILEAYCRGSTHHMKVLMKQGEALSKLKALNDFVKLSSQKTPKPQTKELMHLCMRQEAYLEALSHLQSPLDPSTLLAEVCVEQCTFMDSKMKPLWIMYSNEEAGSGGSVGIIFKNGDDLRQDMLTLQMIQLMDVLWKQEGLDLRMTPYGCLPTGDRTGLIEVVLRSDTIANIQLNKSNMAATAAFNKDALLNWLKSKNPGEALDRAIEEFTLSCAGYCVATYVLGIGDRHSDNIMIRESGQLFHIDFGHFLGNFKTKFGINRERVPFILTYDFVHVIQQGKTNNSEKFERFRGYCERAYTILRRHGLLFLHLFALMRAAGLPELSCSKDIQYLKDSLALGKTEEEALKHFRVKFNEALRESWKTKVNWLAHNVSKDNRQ
In words: Selectivity interaction (ProQinase) EUB0000171b PIK3CD.

For assay [10], the target named is Mitogen-activated protein kinase 10 (Homo sapiens, UniProt P53779). In words: Selectivity interaction (Ambit KINOMEscan and KiNATiv profiling in Jurkat cells) EUB0000090b MAPK10. The class given is cell-based. As to conditions: at 1 µM.
Sequence of Mitogen-activated protein kinase 10 (P53779 whole entry): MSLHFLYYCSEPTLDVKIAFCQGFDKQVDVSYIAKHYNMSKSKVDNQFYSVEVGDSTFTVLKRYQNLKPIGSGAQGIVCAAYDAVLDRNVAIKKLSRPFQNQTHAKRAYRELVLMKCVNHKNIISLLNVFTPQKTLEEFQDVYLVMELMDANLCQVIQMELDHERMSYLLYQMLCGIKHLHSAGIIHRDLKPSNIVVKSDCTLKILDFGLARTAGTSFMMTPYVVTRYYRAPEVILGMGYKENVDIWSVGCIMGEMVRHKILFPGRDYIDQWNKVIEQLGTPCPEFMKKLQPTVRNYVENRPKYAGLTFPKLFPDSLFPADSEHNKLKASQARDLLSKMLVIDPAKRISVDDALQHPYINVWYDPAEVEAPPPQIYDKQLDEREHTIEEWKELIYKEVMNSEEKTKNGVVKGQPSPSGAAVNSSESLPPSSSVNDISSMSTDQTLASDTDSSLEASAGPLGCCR
Assay [11] addresses Aurora kinase B (Homo sapiens, UniProt Q96GD4). In words: Selectivity interaction (Panel of kinases, GPCRs, ion channels and transporters (enzymatic assay)) EUB0000223bCl AURKB.
Assay [12] concerns the target Focal adhesion kinase 1 (Homo sapiens, UniProt Q05397). In words: Selectivity interaction (Upstate Kinase Profiler service (Millipore)) EUB0000056c PTK2. As to conditions: at 1 µM.
For assay [13], the target named is Cannabinoid receptor 1 (Homo sapiens, UniProt P21554). In words: Selectivity interaction (Cannabinoid CB1 calcium flux assay, agonist and antagonist mode ) EUB0000877a CNR1. (In general: Calcium assays in cells follow changes in intracellular calcium, usually with a dye or a luminescent sensor.)
In assay [14] the target is 5'-AMP-activated protein kinase catalytic subunit alpha-1 (Homo sapiens, UniProt Q13131). In words: Selectivity interaction (KinomeScan (DiscoverX)) EUB0000655a PRKAA1. To be noted: at 10 µM.
Assay [15] concerns the target DNA (cytosine-5)-methyltransferase 3A (Homo sapiens) (UniProt Q9Y6K1). In words: Selectivity interaction (PWWP, WD40, and Tudor domain panel (DSLS measurements, literature)) EUB0000270b DNMT3A.
Assay [16] deals with Ribosomal protein S6 kinase alpha-1 (Homo sapiens, UniProt Q15418). In words: Selectivity interaction (KinomeScan (DiscoverX)) EUB0000092b RPS6KA1. To be noted: at 10 µM.
Sequence of Ribosomal protein S6 kinase alpha-1 (Q15418 whole entry): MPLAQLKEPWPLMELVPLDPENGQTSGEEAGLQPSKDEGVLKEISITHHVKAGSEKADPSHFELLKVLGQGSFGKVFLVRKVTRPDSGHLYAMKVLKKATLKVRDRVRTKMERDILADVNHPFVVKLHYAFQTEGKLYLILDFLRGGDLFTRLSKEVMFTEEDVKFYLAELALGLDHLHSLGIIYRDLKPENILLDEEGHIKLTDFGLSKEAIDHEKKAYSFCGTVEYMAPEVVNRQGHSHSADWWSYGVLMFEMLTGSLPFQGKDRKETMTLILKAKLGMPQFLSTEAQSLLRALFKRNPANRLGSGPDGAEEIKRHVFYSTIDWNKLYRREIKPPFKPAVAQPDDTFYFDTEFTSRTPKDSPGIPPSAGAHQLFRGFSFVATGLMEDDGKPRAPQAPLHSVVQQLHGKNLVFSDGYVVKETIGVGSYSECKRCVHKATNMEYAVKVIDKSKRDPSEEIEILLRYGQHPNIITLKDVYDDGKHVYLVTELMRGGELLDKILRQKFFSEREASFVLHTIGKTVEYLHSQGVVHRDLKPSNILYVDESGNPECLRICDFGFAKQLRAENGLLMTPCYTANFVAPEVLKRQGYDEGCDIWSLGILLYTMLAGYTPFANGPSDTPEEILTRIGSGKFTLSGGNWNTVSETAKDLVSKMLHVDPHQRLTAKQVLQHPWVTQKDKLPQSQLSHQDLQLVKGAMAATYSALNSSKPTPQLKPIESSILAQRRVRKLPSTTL

Sequence of Tyrosine-protein kinase CSK (Homo sapiens) (P41240 2-450 limits assumed): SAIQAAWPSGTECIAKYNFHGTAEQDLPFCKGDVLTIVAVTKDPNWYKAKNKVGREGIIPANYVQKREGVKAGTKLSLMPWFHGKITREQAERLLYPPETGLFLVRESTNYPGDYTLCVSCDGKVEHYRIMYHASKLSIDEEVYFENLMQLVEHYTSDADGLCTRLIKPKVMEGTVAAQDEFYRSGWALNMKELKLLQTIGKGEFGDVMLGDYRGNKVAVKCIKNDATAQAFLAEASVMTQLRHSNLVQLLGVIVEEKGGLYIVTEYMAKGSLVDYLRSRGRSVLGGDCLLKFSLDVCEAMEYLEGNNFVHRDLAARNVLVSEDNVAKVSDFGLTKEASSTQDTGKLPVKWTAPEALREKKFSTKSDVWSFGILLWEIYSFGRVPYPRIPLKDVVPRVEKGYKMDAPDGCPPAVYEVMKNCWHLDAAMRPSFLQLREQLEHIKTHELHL
Sequence of Platelet-derived growth factor receptor alpha (Homo sapiens), P16234 [T674I] (P16234 whole entry T674I): as the sequence (P16234 whole entry) above, with T674I counted along it
Sequence of Platelet-derived growth factor receptor alpha (Homo sapiens), P16234 [D842V] (P16234 whole entry D842V): as the sequence (P16234 whole entry) above, with D842V counted along it
Sequence of Focal adhesion kinase 1 (Q05397 2-1052 limits assumed): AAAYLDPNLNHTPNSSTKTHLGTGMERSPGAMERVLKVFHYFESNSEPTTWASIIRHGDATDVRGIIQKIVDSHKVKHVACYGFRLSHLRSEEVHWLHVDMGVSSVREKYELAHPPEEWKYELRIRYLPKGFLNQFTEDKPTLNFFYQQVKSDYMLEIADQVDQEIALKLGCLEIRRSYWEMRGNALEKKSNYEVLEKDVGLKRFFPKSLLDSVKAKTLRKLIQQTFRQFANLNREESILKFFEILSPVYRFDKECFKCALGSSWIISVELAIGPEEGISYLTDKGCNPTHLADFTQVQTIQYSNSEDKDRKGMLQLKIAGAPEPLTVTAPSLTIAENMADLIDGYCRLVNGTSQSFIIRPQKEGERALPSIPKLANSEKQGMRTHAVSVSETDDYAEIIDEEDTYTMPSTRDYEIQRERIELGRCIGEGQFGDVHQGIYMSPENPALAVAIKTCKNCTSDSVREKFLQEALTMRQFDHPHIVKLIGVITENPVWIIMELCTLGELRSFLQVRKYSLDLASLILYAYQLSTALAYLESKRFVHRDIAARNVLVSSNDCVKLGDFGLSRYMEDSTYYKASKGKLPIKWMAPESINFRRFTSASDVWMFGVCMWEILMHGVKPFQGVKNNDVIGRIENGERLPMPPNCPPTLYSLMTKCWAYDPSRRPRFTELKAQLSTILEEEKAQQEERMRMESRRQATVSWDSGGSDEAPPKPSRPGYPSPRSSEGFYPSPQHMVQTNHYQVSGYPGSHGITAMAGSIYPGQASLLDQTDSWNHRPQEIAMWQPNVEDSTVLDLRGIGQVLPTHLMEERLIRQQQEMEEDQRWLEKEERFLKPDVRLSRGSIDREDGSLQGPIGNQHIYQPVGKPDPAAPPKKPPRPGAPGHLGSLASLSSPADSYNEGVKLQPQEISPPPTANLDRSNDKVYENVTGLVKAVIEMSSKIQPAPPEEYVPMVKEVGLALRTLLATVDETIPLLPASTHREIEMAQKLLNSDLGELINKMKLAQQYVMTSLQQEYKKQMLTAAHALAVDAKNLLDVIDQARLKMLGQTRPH
Sequence of DNA (cytosine-5)-methyltransferase 3A (Homo sapiens) (Q9Y6K1 whole entry, looked up, the tested form may be a part): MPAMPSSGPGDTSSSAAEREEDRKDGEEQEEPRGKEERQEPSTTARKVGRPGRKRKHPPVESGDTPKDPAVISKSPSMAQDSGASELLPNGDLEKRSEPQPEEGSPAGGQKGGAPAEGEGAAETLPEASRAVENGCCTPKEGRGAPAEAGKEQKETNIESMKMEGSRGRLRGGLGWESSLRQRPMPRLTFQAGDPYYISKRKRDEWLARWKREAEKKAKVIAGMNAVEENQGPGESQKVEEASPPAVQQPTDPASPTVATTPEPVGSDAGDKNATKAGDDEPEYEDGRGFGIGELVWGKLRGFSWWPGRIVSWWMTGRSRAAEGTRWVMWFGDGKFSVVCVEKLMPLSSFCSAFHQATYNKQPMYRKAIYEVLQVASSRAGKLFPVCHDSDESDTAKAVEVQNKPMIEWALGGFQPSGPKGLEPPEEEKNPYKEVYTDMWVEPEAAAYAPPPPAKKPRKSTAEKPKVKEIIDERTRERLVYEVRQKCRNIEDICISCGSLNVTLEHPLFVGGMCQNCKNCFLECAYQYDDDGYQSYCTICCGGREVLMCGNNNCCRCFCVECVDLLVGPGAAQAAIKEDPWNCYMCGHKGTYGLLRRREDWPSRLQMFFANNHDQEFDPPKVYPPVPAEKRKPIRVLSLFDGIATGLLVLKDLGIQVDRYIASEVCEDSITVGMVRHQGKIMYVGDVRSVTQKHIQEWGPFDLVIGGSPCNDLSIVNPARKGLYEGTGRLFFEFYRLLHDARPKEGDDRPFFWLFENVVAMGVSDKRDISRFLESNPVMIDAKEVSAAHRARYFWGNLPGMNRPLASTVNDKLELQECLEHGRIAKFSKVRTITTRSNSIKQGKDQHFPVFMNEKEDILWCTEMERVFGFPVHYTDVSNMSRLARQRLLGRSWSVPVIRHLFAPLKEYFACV

Consider `CC[C@@H]1[C@H](F)C(=O)N[C@@H]1COc1nccc2cc(C(N)=O)c(OC)cc12` [ZIMLOVISERTIB], for which, in [1], the % of inhibition is -0.4%.
Take `CN(C(=O)c1cnn2cccnc12)c1cc2c(cc1N1CCOCC1)C(=O)N(C[C@@H](F)C(C)(C)O)C2`: the dTM in assay [2] is -0.4 K.
The compound `CCc1ccccc1C(=O)Nc1n[nH]c2c(C)c(F)c(C3C(C#N)=C(C)N(C)C(C)=C3C#N)cc12` [BAY-3827] gave a % of control in assay [3] of 0%.
As for `C=CC(=O)Nc1cccc(C(=O)Nc2ccc(Nc3cc(-c4[nH]c(SC)nc4C)ccn3)cc2)c1`, the % of control came out at 97% in assay [4] (at 1 µM); 72% in assay [4] (at 5 µM); 68% in assay [5] (at 1 µM); 41% in assay [5] (at 5 µM); 96% in [6] (at 1 µM); 84% in assay [6] (at 5 µM). Also, the % of control in assay [7] (at 1 µM) came to 91%; in [7] (at 5 µM) it was 68%; in assay [8] (at 1 µM) it was 87%; in [8] (at 5 µM), 81%; in assay [9] (at 1 µM) it was 119%; in [9] (at 5 µM), 113%.
As for `CN(C)C/C=C/C(=O)Nc1ccc(C(=O)N2CCCC(Nc3ncc(Cl)c(-c4c[nH]c5ccccc45)n3)C2)cc1` (configuration not stated), the % of control in assay [10] amounted to 1%.
Take `COc1cc(C(=O)N2CC[C@@H](O)[C@@H](N)C2)cc2nc(-c3cc4ccccc4n3CC3CC3)n(C)c12`: in assay [11], the pXC50 was < 4.5 M.
For `Cc1ccc(-c2ccc3c(ccc4sc5c(c43)NC[C@@H](C)NC5=O)n2)cn1`, the % of inhibition in [12] was -2%.
Turning to `CCC(=O)N1CC[C@H](Nc2ncnc3c2CN(c2cnc(OC)c(C(F)(F)F)c2)CC3)C1` [LENIOLISIB], in [13], the half-inhibitory concentration (IC50) was > 30 µM.
In assay [14], `CN(C)CCOc1ccc(-c2nc(-c3ccncc3)c(-c3ccc4c(c3)CC/C4=N\O)[nH]2)cc1` displayed a % of control of 100%.
On to `Cc1cc(CN)cc(C)c1-c1ncn(C)c1-c1cncn1C`, for which, in assay [15], the dTagg was -0.1 K.
Consider `CCC(=O)N1CCN(c2ccc(-n3c(=O)ccc4cnc5ccc(-c6cnc7ccccc7c6)cc5c43)cc2C(F)(F)F)CC1`, for which the % of control in assay [16] came out at 100%.

A word on the IC50: it is the concentration at which inhibition is half-maximal.
